The source of these data is ChEMBL document CHEMBL5329151, “Novel pirfenidone derivatives: synthesis and biological evaluation” (2023).

For orientation: inhibition means the change of the read-out against control, counted positive when it falls.

Test [1] has as its system 3T3-L1. As to the kind of experiment: Inhibition of cell growth in mouse 3T3-L1 cells after 24 to 48 hrs by MTT assay. Particulars: time 24-48 hrs. The test is classed as functional, cell-based. On the technique in general: Formazan colour is commonly taken as a measure of viable cells.
Test [2] concerns 3T3-L1. In words: Inhibition of fibronectin secretion in mouse 3T3-L1 cells assessed as reduction in accumulation of fibronectin in extracellular matrix incubated for 48 hrs by ELISA (reference value: 1389.10 +/- 9.19 ng/ml). The test is classed as functional, cell-based. Particulars: dose 0.5-2 mmol/L. A general note: An ELISA detects its analyte on a solid surface through an enzyme-linked reagent.

In test [3] the test system is 3T3-L1. In words: Inhibition of cell growth in mouse 3T3-L1 cells at 0.5 to 2 mmol/L by MTT assay. Particulars: dose 0.5-2 mmol/L, time 24-48 hrs, TDE = time-dependent effect. The test is classed as functional, cell-based.
Test [4] deals with 3T3-L1. In words: Inhibition of cell growth in mouse 3T3-L1 cells at […] after 24 to 48 hrs by MTT assay. It counts as functional. Particulars: dose 2 mmol/L, time 24-48 hrs.

Each structure is given as a SMILES string. Active and inactive are the calls of the source. The rule behind the calls is not given here.

Turning to `NC(=O)N/N=C\c1ccc(-n2ccccc2=O)cc1`, the inhibition entry in the test with 3T3-L1 [1] was “Dose-Dependent Effect”; in the test with 3T3-L1 [3], “Tde”. The inhibition entry in the test with 3T3-L1 [2] is “Active”.

`O=c1ccccn1-c1ccc(/C=N\Nc2ccccc2)cc1`: the inhibition entry in the test with 3T3-L1 [1] is “Dose-Dependent Effect”; in the test with 3T3-L1 [3] it was “Tde”. In addition, in the test with 3T3-L1 [2], the inhibition result is “Active”.

For the compound `NC(=S)N/N=C\c1ccc(-n2ccccc2=O)cc1`, the inhibition entry with 3T3-L1 [1] was “Dose-Dependent Effect”; in the test with 3T3-L1 [3] it was “Tde”. In the test with 3T3-L1 [2], the inhibition entry is “Active”.

Regarding `N/N=C/c1ccc(-n2ccccc2=O)cc1`, the inhibition entry is “Dose-Dependent Effect” with 3T3-L1 [1] and “Tde” in the test with 3T3-L1 [3]. Moreover, the inhibition result in the test on 3T3-L1 [2] was “Active”.

On to `O=c1ccccn1-c1ccc(C2=NC3CCCCC3N2)cc1` (stereo not drawn), for which, in the test with 3T3-L1 [4], the inhibition at 2000 µM turned out to be 95.4%. For the same compound, the figures for the inhibition entry in the test on 3T3-L1 [1] and with 3T3-L1 [3] were “Dose-Dependent Effect” and “Tde”, respectively. Besides, in the test on 3T3-L1 [2], the inhibition result was “Active”.

With `O=c1ccccn1-c1ccc(C2=NCCCN2)cc1`, the inhibition result in the test with 3T3-L1 [1] was “Dose-Dependent Effect”; with 3T3-L1 [3], “Tde”. Besides, the inhibition entry in the test with 3T3-L1 [2] is “Active”.

Regarding `Cc1ccc(=O)n(-c2ccccc2)c1`, the inhibition entry with 3T3-L1 [1] is “Dose-Dependent Effect”.

As for `O=c1ccccn1-c1ccc(C2=NCCN2)cc1`, the values for the inhibition result with 3T3-L1 [1] and in the test on 3T3-L1 [3] were “Dose-Dependent Effect” and “Tde”, respectively. Also, the inhibition entry in the test with 3T3-L1 [2] was “Active”.
